Reference: US20050096350A1, “Halo substituted benzo[b]thiophenes as therapeutic agents” (priority 2003, published 2005)

Molecular target: T1, PI3Kγ (purified recombinant p101/p110γ protein) (Homo sapiens, UniProt P48736)
T1 construct: HA; made in house; host or cells: Spodoptera frugiperda Sf9 cells (baculovirus coinfection)
Test: PI3Kγ in vitro kinase assay
Type: biochemical
Settings: 20 μM ATP, 25 μM PIP2, G protein β1/γ2 subunits
Method: Spodtera frugiperda cells, grown in ESF921 media, were coinfected with baculovirus expressing a glu-tagged p101 and baculovirus expressing an HA-tagged […], at a 3:1 ratio of p101 baculovirus to p110γ baculovirus. Sf9 cells were grown to 1×10^7 total cells/mL in 10 L bioreactors and harvested 48-72 hours post infection. Samples of infected cells were then tested for expression of p101/p110γ PI3 kinase by immunoprecipitation and Western Blot analysis methods (see below).
To purify PI3Kγ, 4 volumes of room temperature hypotonic lysis buffer (1 mM MgCl2, 1 mM DTT, 5 mM EGTA, 1 mM Pefabloc, 0.5 μM aprotinin, 5 μM leupeptin, 2 μM pepstatin, 5 μM E64, pH 8) per gram of cell paste, was poured onto frozen cell pellets with stirring, then lysed in a nitrogen “bomb” at 400 psi (599HC T316, Parr Instrument Co, Moline, Ill.). NaCl was added to 150 mM, and sodium cholate was added to 1% and mixed for another 45 minutes. The lysates were clarified by centrifugation for 25 minutes at 14,000 rpm. The lysates were then loaded over anti-glu-linked Protein-G Sepaharose beads (Covance Research Products, Richmond, Calif.) using 20 mL resin/50 g cell paste. The column was washed with 15 volumes of wash buffer (1 mM DTT, 0.2 mM EGTA, 1 mM Pefabloc, 0.5 μM aprotinin, 5 μM leupeptin, 2 μM pepstatin, 5 μM E64, 150 mM NaCl, 1% sodium cholate, pH 8). PI3Kγ was eluted with 6 column volumes of wash buffer that contain 100 μg/mL of a peptide that competes for binding of the glu tag. The column fractions with the eluted protein (determined by taking OD280 readings) were collected and dialyzed in 0.2 mM EGTA, 1 mM DTT, 1 mM Pefabloc, 5 μM leupeptin, 0.5% sodium cholate, 150 mM NaCl, and 50% glycerol, pH 8. The fractions were stored at −80° C. until further use.
Spodtera frugiperda cells were coinfected with baculovirus expressing a glu-tagged G protein β1 and baculovirus expressing a G protein β2, at a 1:1 ratio of glu-tagged G protein β1 baculovirus to G protein β2 baculovirus. Sf9 cells are grown in 10 L bioreactors and harvested 48-72 hours post infection. Samples of infected cells were tested for G protein β1/β2 expression by Western Blot analysis, as described below. Cell lysates were homogenized and loaded onto a column of glu-tagged beads as in Biological Example 1 and competed off the column with a glu peptide and processed as described in Biological Example 1.
The inhibitory properties of the compounds in Table 1 were assayed in an in vitro PI3K assay. In a 96-well polypropylene plate, each well was spotted with 2 μL of 50 times the desired final concentration of compound in DMSO. Purified recombinant p101/p110γ protein (0.03 μg; ˜2.7 nM) and G protein β1/γ2 subunits (0.09 μg; ˜57.7 nM) for each reaction was combined in the assay buffer (30 mM HEPES, 100 mM NaCl, 1 mM EGTA, and 1 mM DTT). ATP and [γ-^32P-ATP] (0.09 μCi) were added to this mixture so that the final ATP concentration in the reaction was 20 μM. Lipid micelles were formed by sonicating phosphatidylinositol-4,5-diphosphate (PIP2), phosphatidylethanolamine (PE), and Na-cholate in the assay buffer for 10 minutes, adding MgCl2 and incubating on ice for 20 minutes, for final concentrations of 25 μM PIP2, 300 μM PE, 0.02% Na-cholate, and 10 mM MgCl2 in the reaction. The reactions were started by adding equal volumes lipid and enzyme mixture in a total volume of 50 μL, allowed to run for 20 minutes at room temperature, and stopped with 100 μL 75 mM H3PO4. The lipid product was transferred to a glass fiber filter plate and washed with 75 mM H3PO4 several times. The presence of radioactive lipid product (PIP3) was measured by adding Wallac Optiphase mix to each well and counting in a Wallac 1450 Trilux plate reader (PerkinElmer Life Sciences Inc., Boston, Mass. 02118). The IC50 for each compound tested is reported in μM in the Tables above.

T1 sequence (P48736 whole entry, species assumed): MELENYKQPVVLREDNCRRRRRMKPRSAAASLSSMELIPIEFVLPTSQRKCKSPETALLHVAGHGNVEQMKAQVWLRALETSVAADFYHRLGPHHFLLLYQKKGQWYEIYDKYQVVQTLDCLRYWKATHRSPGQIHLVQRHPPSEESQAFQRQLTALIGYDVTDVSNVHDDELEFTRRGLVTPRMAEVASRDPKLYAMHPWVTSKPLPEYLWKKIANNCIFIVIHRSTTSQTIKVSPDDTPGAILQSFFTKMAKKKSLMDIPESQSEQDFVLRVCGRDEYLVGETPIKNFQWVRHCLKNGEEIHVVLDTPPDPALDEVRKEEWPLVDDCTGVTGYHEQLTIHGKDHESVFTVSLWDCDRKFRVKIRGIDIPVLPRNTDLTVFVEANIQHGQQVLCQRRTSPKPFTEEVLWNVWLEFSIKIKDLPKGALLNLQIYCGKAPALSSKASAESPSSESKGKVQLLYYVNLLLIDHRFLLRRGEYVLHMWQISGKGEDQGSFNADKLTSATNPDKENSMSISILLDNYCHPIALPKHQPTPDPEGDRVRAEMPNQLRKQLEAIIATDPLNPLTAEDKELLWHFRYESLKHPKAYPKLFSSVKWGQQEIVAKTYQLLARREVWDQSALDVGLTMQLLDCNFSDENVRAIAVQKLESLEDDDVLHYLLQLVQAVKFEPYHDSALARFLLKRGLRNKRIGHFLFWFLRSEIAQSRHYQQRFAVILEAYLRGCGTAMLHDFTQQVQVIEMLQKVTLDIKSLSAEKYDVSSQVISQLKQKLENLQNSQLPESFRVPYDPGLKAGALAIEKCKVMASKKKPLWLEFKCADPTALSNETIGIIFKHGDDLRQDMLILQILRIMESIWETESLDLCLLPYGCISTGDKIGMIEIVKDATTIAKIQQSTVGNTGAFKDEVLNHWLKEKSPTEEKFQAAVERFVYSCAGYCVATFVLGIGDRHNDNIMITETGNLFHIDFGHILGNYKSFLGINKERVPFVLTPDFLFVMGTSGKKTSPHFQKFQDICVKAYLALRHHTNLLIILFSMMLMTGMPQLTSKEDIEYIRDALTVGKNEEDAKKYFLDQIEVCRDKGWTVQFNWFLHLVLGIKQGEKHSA
T1 sequence (Q8WYR1 whole entry partner, species assumed): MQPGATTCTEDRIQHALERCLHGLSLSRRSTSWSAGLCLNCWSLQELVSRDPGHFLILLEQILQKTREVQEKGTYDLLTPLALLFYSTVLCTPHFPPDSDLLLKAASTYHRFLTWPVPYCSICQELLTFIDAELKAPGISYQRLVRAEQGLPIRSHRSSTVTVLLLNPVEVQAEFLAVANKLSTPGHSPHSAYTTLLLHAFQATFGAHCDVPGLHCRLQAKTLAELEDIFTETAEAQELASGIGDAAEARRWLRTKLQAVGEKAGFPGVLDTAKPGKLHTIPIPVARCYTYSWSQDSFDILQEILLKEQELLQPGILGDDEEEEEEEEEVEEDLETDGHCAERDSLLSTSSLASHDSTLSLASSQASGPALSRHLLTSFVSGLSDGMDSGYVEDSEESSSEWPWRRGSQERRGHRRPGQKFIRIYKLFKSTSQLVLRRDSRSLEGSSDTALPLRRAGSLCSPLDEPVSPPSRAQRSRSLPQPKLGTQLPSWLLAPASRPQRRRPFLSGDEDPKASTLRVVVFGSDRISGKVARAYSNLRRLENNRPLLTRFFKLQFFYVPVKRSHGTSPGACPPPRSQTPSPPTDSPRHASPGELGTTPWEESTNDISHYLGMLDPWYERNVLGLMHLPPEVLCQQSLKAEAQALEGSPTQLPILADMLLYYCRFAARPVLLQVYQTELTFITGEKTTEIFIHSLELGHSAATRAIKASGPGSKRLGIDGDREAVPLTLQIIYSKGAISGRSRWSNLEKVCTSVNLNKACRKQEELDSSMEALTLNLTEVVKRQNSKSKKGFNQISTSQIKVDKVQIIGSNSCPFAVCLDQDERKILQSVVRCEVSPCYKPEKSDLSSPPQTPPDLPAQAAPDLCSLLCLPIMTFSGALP

Compound	IC50 [nM]
COc1cc2c(OC3CCOCC3)c(C(=O)Nc3nn[nH]n3)sc2cc1F [Example 14, 6-Fluoro-5-methoxy-3-(tetrahydro-pyran-4-yloxy)-benzo[b]thiophene-2-carboxylic acid (2H-tetrazol-5-yl)-amide]	62.5
COC(=O)CCc1ccc(Sc2c(C(=O)Nc3nnn[nH]3)sc3ccc(OC)c(F)c23)cc1 [Example 28, 3-{4-[4-Fluoro-5-methoxy-2-(1H-tetrazol-5-ylcarbamoyl)-benzo[b]thiophen-3-ylsulfanyl]-phenyl}-propionic acid methyl ester]	14900
3-[2-(Acetyl-methyl-amino)-1-phenyl-propylsulfanyl]-4-fluoro-5-methoxy-benzo[b]thiophene-2-carboxylic acid (1H-tetrazol-5-yl)-amide [Example 30]	20000
COc1cc2c(OC3CCCC(C)(C)C3)c(C(=O)Nc3nn[nH]n3)sc2cc1F (centres unmarked) [Example 13, 3-(3,3-Dimethyl-cyclohexyloxy)-6-fluoro-5-methoxy-benzo[b]thiophene-2-carboxylic acid (2H-tetrazol-5-yl)-amide]	6.5
3-(4-Cyclohexyl-phenylsulfanyl)-4-fluoro-5-methoxy-benzo[b]thiophene-2-carboxylic acid (1H-tetrazol-5-yl)-amide [Example 37]	505
3-(4-Chloro-phenylsulfanyl)-6-fluoro-5-methoxy-benzo[b]thiophene-2-carboxylic acid (1H-tetrazol-5-yl)-amide [Example 20]	45.5
COc1cc2c(OC3CCCCC3)c(C(=O)Nc3nn[nH]n3)sc2cc1F [Example 7, 3-Cyclohexyloxy-6-fluoro-5-methoxy-benzo[b]thiophene-2-carboxylic acid (2H-tetrazol-5-yl)-amide]	10.5
COc1ccc2sc(C(=O)Nc3nnn[nH]3)c(SC3CCCCC3)c2c1F [Example 21, 3-Cyclohexylsulfanyl-4-fluoro-5-methoxy-benzo[b]thiophene-2-carboxylic acid (1H-tetrazol-5-yl)-amide]	580
COc1cc2c(OC3CCC3)c(C(=O)Nc3nn[nH]n3)sc2cc1F [Example 16, 3-Cyclobutoxy-6-fluoro-5-methoxy-benzo[b]thiophene-2-carboxylic acid (2H-tetrazol-5-yl)-amide]	32.5
COc1cccc(Sc2c(C(=O)Nc3nnn[nH]3)sc3cc(F)c(OC)cc23)c1 [Example 18, 6-Fluoro-5-methoxy-3-(3-methoxy-phenylsulfanyl)-benzo[b]thiophene-2-carboxylic acid (1H-tetrazol-5-yl)-amide]	470
COc1cc2c(Oc3ccc(C4CCCCC4)cc3)c(C(=O)Nc3nn[nH]n3)sc2cc1F [Example 4, 3-(4-Cyclohexyl-phenoxy)-6-fluoro-5-methoxy-benzo[b]thiophene-2-carboxylic acid (2H-tetrazol-5-yl)-amide]	33.5
6-Fluoro-5-methoxy-3-phenoxy-benzo[b]thiophene-2-carboxylic acid iminomethyl-amide [Example 3]	24.5
CCc1cccc(Oc2c(C(=O)Nc3nn[nH]n3)sc3cc(F)c(OC)cc23)c1 [Example 5, 3-(3-Ethyl-phenoxy)-6-fluoro-5-methoxy-benzo[b]thiophene-2-carboxylic acid (2H-tetrazol-5-yl)-amide]	62.5
COc1cc2c(OC3CC(C)CC(C)C3)c(C(=O)Nc3nn[nH]n3)sc2cc1F (centres unmarked) [Example 15, 3-(3,5-Dimethyl-cyclohexyloxy)-6-fluoro-5-methoxy-benzo[b]thiophene-2-carboxylic acid (2H-tetrazol-5-yl)-amide]	2.2
COc1cc2c(Sc3ccccc3)c(C(=O)Nc3nnn[nH]3)sc2cc1F [Example 19, 6-Fluoro-5-methoxy-3-phenylsulfanyl-benzo[b]thiophene-2-carboxylic acid (1H-tetrazol-5-yl)-amide]	32.5
COc1ccc2sc(C(=O)Nc3nnn[nH]3)c(Sc3cccc(Cl)c3)c2c1F [Example 31, 3-(3-Chloro-phenylsulfanyl)-4-fluoro-5-methoxy-benzo[b]thiophene-2-carboxylic acid (1H-tetrazol-5-yl)-amide]	5870
COc1cc2c(OC3CC(C)CC(C)(C)C3)c(C(=O)Nc3nn[nH]n3)sc2cc1F (centres unmarked) [Example 12, 6-Fluoro-5-methoxy-3-(3,3,5-trimethyl-cyclohexyloxy)-benzo[b]thiophene-2-carboxylic acid (2H-tetrazol-5-yl)-amide]	5.3
COc1cc2c(Oc3ccc(Cl)cc3)c(C(=O)Nc3nn[nH]n3)sc2cc1F [Example 1, 3-(4-Chloro-phenoxy)-6-fluoro-5-methoxy-benzo[b]thiophene-2-carboxylic acid (2H-tetrazol-5-yl)-amide]	76.5
COc1cc2c(Oc3ccc(C(C)C)cc3)c(C(=O)Nc3nn[nH]n3)sc2cc1F [Example 6, 6-Fluoro-3-(4-isopropyl-phenoxy)-5-methoxy-benzo[b]thiophene-2-carboxylic acid (2H-tetrazol-5-yl)-amide]	13.5
COc1cc2c(OC3CCCCCC3)c(C(=O)Nc3nn[nH]n3)sc2cc1F [Example 8, 3-Cycloheptyloxy-6-fluoro-5-methoxy-benzo[b]thiophene-2-carboxylic acid (2H-tetrazol-5-yl)-amide]	3.4
COc1ccc2sc(C(=O)Nc3nnn[nH]3)c(Sc3cccc(C(=O)O)c3)c2c1F [Example 25, 3-[4-Fluoro-5-methoxy-2-(1H-tetrazol-5-ylcarbamoyl)-benzo[b]thiophen-3-ylsulfanyl]-benzoic acid]	2390
COc1cccc(Sc2c(C(=O)Nc3nnn[nH]3)sc3ccc(OC)c(F)c23)c1 [Example 32, 4-Fluoro-5-methoxy-3-(3-methoxy-phenylsulfanyl)-benzo[b]thiophene-2-carboxylic acid (1H-tetrazol-5-yl)-amide]	5940
COc1ccc(Sc2c(C(=O)Nc3nnn[nH]3)sc3ccc(OC)c(F)c23)cc1 [Example 33, 4-Fluoro-5-methoxy-3-(4-methoxy-phenylsulfanyl)-benzo[b]thiophene-2-carboxylic acid (1H-tetrazol-5-yl)-amide]	19400

Same assay, conditions: 20 μM ATP, 25 μM PIP2, G protein β1/γ2 subunits, table b197

Compound	IC50 [nM]
COc1cc2c(O[C@H]3CCC[C@H](C)C3)c(C(=O)Nc3nn[nH]n3)sc2cc1F (racemic) [Example 17, trans-(±)-6-Fluoro-5-methoxy-3-(3-methyl-cyclohexyloxy)-benzo[b]thiophene-2-carboxylic acid (2H-tetrazol-5-yl)-amide]	35

Same assay, conditions: 20 μM ATP, 25 μM PIP2, G protein β1/γ2 subunits, table b284

Compound	IC50 [nM]
COc1ccc2c(SC3CCCC3)c(C(=O)Nc3nnn[nH]3)sc2c1F [Example 39, 3-Cyclopentylsulfanyl-7-fluoro-6-methoxy-benzo[b]thiophene-2-carboxylic acid (1H-tetrazol-5-yl)-amide]	16

Same assay, conditions: 20 μM ATP, 25 μM PIP2, G protein β1/γ2 subunits, table b298

Compound	IC50 [nM]
COc1cc2c(Oc3ccc(C4CCCCC4)cc3)c(C(=O)Nc3nn[nH]n3)sc2cc1Cl [Example 44, 6-Chloro-3-(4-Cyclohexyl-phenoxy)-5-methoxy-benzo[b]thiophene-2-carboxylic acid (2H-tetrazol-5-yl)-amide]	110
